Source: patent publication US20260049072A1, “HETEROCYCLIC COMPOUND FOR INDUCING DEGRADATION OF MUTANT KRAS PROTEIN” (Astellas Pharma Inc., priority 2022, published 2026)

The compounds below were run on PA-TU-8902 cells (assay: Non-anchorage-dependent cell growth inhibition (spheroid 3D culture), PA-TU-8902). Conditions: Homo sapiens, PaTu 8902, 144 h; KRAS G12V mutant-positive, 3D spheroid, six days, CellTiter-Glo 2.0; read-out: PA-TU-8902 IC50.
Format: cell-based, human
Experimental: Test Example 3: Evaluation of Non-Anchorage-Dependent Cell Growth Inhibitory Activity on Human KRAS G12V Mutant-Positive Pancreatic Cancer Line PA-TU-8902, Human KRAS G12D Mutant-Positive Pancreatic Cancer Line AsPC-1 or Human KRAS G12C Mutant-Positive Pancreatic Cancer Line MIA PaCa-2
The non-anchorage-dependent cell growth inhibitory activities of subject compounds were evaluated by spheroid 3D cell culture.
PA-TU-8902 cells, AsPC-1 cells or MIA PaCa-2 cells (RIKEN BRC, RCB2094) were seeded at 36 µL/well on a low-cell-adhesive round bottom 384-well plate (Prime Surface: from Sumitomo Bakelite) to give 5×10^2 cells per well. The PA-TU-8902 cells were under the same conditions as in Test Example 1-1, and the AsPC-1 cells were under the same conditions as in Test Example 1-2. For the MIA PaCa-2 cells, RPMI-1640 medium containing 10% fetal bovine serum was used in the presence of 5% CO2 at 37° C.
The next day, the subject compounds (6-9 points having final concentrations in the range of 3 μM to 0.3 nM) and DMSO, which was the solvent for the subject compounds, as a negative control were diluted 100-fold with a fresh medium and were each added at 4 μL per well. After culturing in the presence of 5% CO2 at 37° C. for six days, CellTiter-Glo 2.0 (from Promega) was added at 20 μL per well. After stirring with a plate mixer (from FINEPCR) at normal temperature for an hour, the luminescent signals were measured with ARVO X3 (from PerkinElmer).
With the signaling value in treatment with DMSO taken as 0% inhibition and with the signaling value in the medium alone without cells taken as 100% inhibition, the 50% inhibition values (IC50) were calculated by Sigmoid-Emax model nonlinear regression analysis.
For `CO[C@@H](C)COc1cc(OC2CN(C(=O)N3CC(CN(C)C)C3)C2)c2cc(C3CC3)c(-c3c(C)c(F)cc4[nH]ncc34)c(OCc3ccc(-c4cn([C@H](C(=O)N5C[C@H](O)C[C@H]5C(=O)N[C@@H](CO)c5ccc(N6CCOC6=O)cc5)C(C)C)nn4)cc3)c2n1` (atropisomer, axis not shown) [Example 8], the IC50 was 102 nM.
In the case of `Cc1ncsc1-c1ccc([C@H](CO)NC(=O)[C@@H]2C[C@@H](O)CN2C(=O)[C@H](C(C)C)n2cc(-c3ccc(COc4c(-c5c(C)c(F)cc6[nH]ncc56)c(C5CC5)cc5c(N(C)C6CN(C(=O)O[C@H]7CCN(C)C7)C6)nc(OC6CCOCC6)nc45)cc3)nn2)cc1` (atropisomer, axis not shown) [Example 33], the IC50 is reported as 103 nM.
With `CO[C@@H](C)COc1nc(N2CC[C@H]2C(N)=O)c2cc(C3CC3)c(-c3c(C)c(F)cc4[nH]ncc34)c(OCc3ccc(-c4cn([C@H](C(=O)N5C[C@H](O)C[C@H]5C(=O)N[C@@H](CN(C)C)c5ccc(-c6scnc6C)cc5)C(C)C)nn4)cc3)c2n1` (atropisomer, axis not shown) [Example 37] the IC50 was 78 nM.
Compound `Cc1ncsc1-c1ccc([C@H](CO)NC(=O)[C@@H]2C[C@@H](O)CN2C(=O)[C@H](C(C)C)n2cc(-c3ccc(COc4c(-c5c(C)c(F)cc6[nH]ncc56)c(C5CC5)cc5c(OC6CN(C(=O)NCCN(C)C)C6)nc(OC6CCN(CC(F)F)CC6)nc45)cc3)nn2)cc1` (atropisomer, axis not shown) [Example 31] has an IC50 of 67 nM.
Work on `COC(C)(C)COc1cc(OC2CN(C(=O)N[C@H]3C[C@@H](N(C)C)C3)C2)c2cc(C3CC3)c(-c3c(C)c(F)cc4[nH]ncc34)c(OCc3ccc(-c4cn([C@H](C(=O)N5C[C@H](O)C[C@H]5C(=O)N[C@@H](CO)c5ccc(-n6cncn6)cc5)C(C)C)nn4)cc3)c2n1` (atropisomer, axis not shown) [Example 10] yielded an IC50 of 69 nM.
With `Cc1c(F)cc2[nH]ncc2c1-c1c(C2CC2)cc2c(NC3CN(C(=O)NCCN(C)C)C3)nc(OC[C@@H]3CCCO3)nc2c1OCc1ccc(-c2cn([C@H](C(=O)N3C[C@H](O)C[C@H]3C(=O)N[C@@H](CO)c3ccc(-n4cncn4)cc3)C(C)C)nn2)cc1` (atropisomer, axis not shown) [Example 32] the IC50 was 105 nM.
`CO[C@@H](C)COc1nc(OC2CN(C(=O)NCCN3CCCC3)C2)c2cc(C3CC3)c(-c3c(C)c(F)cc4[nH]ncc34)c(OCc3ccc(-c4cn([C@H](C(=O)N5C[C@H](O)C[C@H]5C(=O)N[C@@H](CO)c5ccc(-c6scnc6C)cc5)C(C)C)nn4)cc3)c2n1` (atropisomer, axis not shown) [Example 22] showed an IC50 of 65 nM.
For `CO[C@@H](C)COc1nc(N(C)C2CN(C(=O)CCCN(C)C)C2)c2cc(C3CC3)c(-c3c(C)c(F)cc4[nH]ncc34)c(OCc3ccc(-c4cn([C@H](C(=O)N5C[C@H](O)C[C@H]5C(=O)N[C@@H](CO)c5ccc(-c6scnc6C)cc5)C(C)C)nn4)cc3)c2n1` (atropisomer, axis not shown) [Example 24], the IC50 was 125 nM.
`CO[C@@H](C)COc1nc(NC2CN(C(=O)O[C@H]3C[C@@H](N(C)C)C3)C2)c2cc(C3CC3)c(-c3c(C)c(F)cc4[nH]ncc34)c(OCc3ccc(-c4cn([C@H](C(=O)N5C[C@H](O)C[C@H]5C(=O)N[C@@H](CO)c5ccc(-c6scnc6C)nc5)C(C)C)nn4)cc3)c2n1` (atropisomer, axis not shown) [Example 3] showed an IC50 of 160 nM.
`Cc1ncsc1-c1ccc([C@H](CO)NC(=O)[C@@H]2C[C@@H](O)CN2C(=O)[C@H](C(C)C)n2cc(-c3ccc(COc4c(-c5c(C)c(F)cc6[nH]ncc56)c(C5CC5)cc5c(N6CC(C#N)C6)nc(OC[C@@H]6CCN(C)C6)nc45)cc3)nn2)cc1` [Example 38] was tested, and the IC50 was 177 nM.
`CC[C@H](C)[C@@H](C(=O)N1C[C@H](O)C[C@H]1C(=O)N[C@@H](CO)c1ccc(-c2scnc2C)cc1)n1cc(-c2ccc(COc3c(-c4c(C)c(F)cc5[nH]ncc45)c(C4CC4)cc4c(O[C@H]5CCN(C(=O)NCCN(C)C)C5)nc(OC[C@H](C)OC)nc34)cc2)nn1` (single isomer, unassigned) [Example 28] was tested, and the IC50 was 159 nM.
`Cc1ncsc1-c1ccc([C@H](CO)NC(=O)[C@@H]2C[C@@H](O)CN2C(=O)[C@H](C(C)C)n2cc(-c3ccc(COc4c(-c5c(C)c(F)cc6[nH]ncc56)c(C5CC5)cc5c(OC6CN(C(=O)NCCN(C)C)C6)nc(OCC(C)(C)CN(C)C)nc45)cc3)nn2)cc1` [Example 36] gave an IC50 of 143 nM.
With `Cc1c(F)cc2[nH]ncc2c1-c1c(C2CC2)cc2c(OC3CN(C(=O)NCCN(C)C)C3)nc(OC3CCOCC3)nc2c1OCc1ccc(-c2cn([C@H](C(=O)N3C[C@H](O)C[C@H]3C(=O)N[C@@H](CO)c3ccc(-n4cccn4)cc3)C(C)C)nn2)cc1` [Example 30] the IC50 was 235 nM.
`CO[C@@H](C)COc1cc(OC2CN(C(=O)N3CC[C@@H](N(C)C)C3)C2)c2cc(C3CC3)c(-c3c(C)c(F)cc4[nH]ncc34)c(OCc3ccc(-c4cn([C@H](C(=O)N5C[C@H](O)C[C@H]5C(=O)N[C@@H](CO)c5ccc(-n6cncn6)cc5)C(C)C)nn4)cc3)c2n1` (atropisomer, axis not shown) [Example 7] showed an IC50 of 81 nM.
Compound `Cc1ncsc1-c1ccc([C@H](CO)NC(=O)[C@@H]2C[C@@H](O)CN2C(=O)[C@H](C(C)C)n2cc(-c3ccc(COc4c(-c5c(C)c(F)cc6[nH]ncc56)c(C5CC5)cc5c(OC6CN(C(=O)NCCO)C6)nc(OC6CCOCC6)nc45)cc3)nn2)cc1` [Example 16] has an IC50 of 261 nM.
With `CO[C@@H](C)COc1nc(NC2CN(C(=O)OCCN(C)C)C2)c2cc(C3CC3)c(-c3c(C)c(F)cc4[nH]ncc34)c(OCc3ccc(-c4cn([C@H](C(=O)N5C[C@H](O)C[C@H]5C(=O)N[C@@H](CO)c5ccc(-c6scnc6C)cc5)C(C)C)nn4)cc3)c2n1` (atropisomer, axis not shown; (M)) [Example 34, 2-(dimethylamino)ethyl 3-({(7M)-6-cyclopropyl-7-(6-fluoro-5-methyl-H-indazol-4-yl)-8-{[4-(1-{(2S)-1-[(2S,4R)-4-hydroxy-2-({(1R)-2-hydroxy-1-[4-(4-methyl-1,3-thiazol-5-yl)phenyl]ethyl}carbamoyl)pyrrolidin-1-yl]-3-methyl-1-oxobutan-2-yl}-1H-1,2,3-triazol-4-yl)phenyl]methoxy}-2-[(2S)-2-methoxypropoxy]quinazolin-4-yl}amino)azetidine-1-carboxylate] the IC50 was 109 nM.
`Cc1ncsc1-c1ccc([C@H](CCO)NC(=O)[C@@H]2C[C@@H](O)CN2C(=O)[C@H](C(C)C)n2cc(-c3ccc(COc4c(-c5c(C)c(F)cc6[nH]ncc56)c(C5CC5)cc5c(NC6CN(C(=O)NCCN(C)C)C6)nc(OC6CCOCC6)nc45)cc3)nn2)cc1` [Example 39, (4R)-1-[(2S)-2-(4-{4-[({(7M)-6-cyclopropyl-4-[(1-{[2-(dimethylamino)ethyl]carbamoyl}azetidin-3-yl)oxy]-7-(6-fluoro-5-methyl-1H-indazol-4-yl)-2-[(oxan-4-yl)oxy]quinazolin-8-yl}oxy)methyl]phenyl}-1H-1,2,3-triazol-1-yl)-3-methylbutanoyl]-4-hydroxy-N-{(1S)-3-hydroxy-1-[4-(4-methyl-1,3-thiazol-5-yl)phenyl]propyl}-L-prolinamide] gave an IC50 of 52 nM.
In the case of `CO[C@@H](C)COc1nc(NC2CN(C(=O)N3CCN(C)CC3)C2)c2cc(C3CC3)c(-c3c(C)c(F)cc4[nH]ncc34)c(OCc3ccc(-c4cn([C@H](C(=O)N5C[C@H](O)C[C@H]5C(=O)N[C@@H](CO)c5ccc(-n6cncn6)cc5)C(C)C)nn4)cc3)c2n1` (atropisomer, axis not shown) [Example 27], the IC50 is reported as 122 nM.

Same assay, conditions: KRAS G12V mutant-positive, 3D spheroid, six days, CellTiter-Glo 2.0; read-out: PA-TU-8902 IC50
`CO[C@@H](C)COc1cc(OC2CN(C(=O)NCCN(C)C)C2)c2cc(C3CC3)c(-c3c(C)c(F)cc4[nH]ncc34)c(OCc3ccc(-c4cn([C@H](C(=O)N5C[C@H](O)C[C@H]5C(=O)N[C@@H](CO)c5ccc(-c6scnc6C)cc5)C(C)C)nn4)cc3)c2n1` [Example 43, (4R)-1-[(2S)-2-(4-{4-[({(7M)-6-cyclopropyl-4-[(1-{[2-(dimethylamino)ethyl]carbamoyl}azetidin-3-yl)oxy]-7-(6-fluoro-5-methyl-1H-indazol-4-yl)-2-[(2S)-2-methoxypropoxy]quinolin-8-yl}oxy)methyl]phenyl}-1H-1,2,3-triazol-1-yl)-3-methylbutanoyl]-4-hydroxy-N-{(1R)-2-hydroxy-1-[4-(4-methyl-1,3-thiazol-5-yl)phenyl]ethyl}-L-prolinamide] was tested, and the IC50 was 61 nM.
